Ends that are not written are not given here.
Assays:
psoriasis animal model = assay: Inhibitory effect on inflammation in imiquimod-induced psoriasis animal model; assay type: in vivo, mouse; details: day 7
Method: The nanoparticle complex prepared in Example 3 was applied on the skin of a psoriasis animal model and the inhibitory effect of the complex on inflammation caused by psoriasis was investigated. First, the hair of the ear of the mouse was removed, and imiquimod was continuously treated at the concentration of 20 mg/cm^2 for 6 days from the next day to induce psoriasis. On the other hand, on the 2nd to 6th day of the treatment of imiquimod, the nanoparticle complex of Example 3 or Comparative Example 3 was applied in a total amount of 100 μg, 50 μg per time. On the day when imiquimod and the treatment drug were treated together, the treatment drug was applied 4 hours before and after the application of imiquimod to prevent the interaction between the drugs. At this time, the groups treated with Vaseline and DW were used as the negative control, and the group applied with clobetasol propionate (CLQ) at the concentration of 20 mg/cm^2 was used as the positive control. The application of the nanoparticle complex was completed by day 6, and the inhibitory effect on inflammation was confirmed using the animal model on day 7 (FIG. 14). Particularly, the inhibitory effect on inflammation was confirmed by measuring the thickness of the ear of the animal model, the punch biopsy weight, tissue H&E test, ELISA after tissue crushing, and the extracted spleen weight. […]

MLE12 cells = assay: Epithelial-to-myofibroblast differentiation, vimentin FACS after TGF-β; assay type: cell-based
STAT3 protein = STAT3 protein (Homo sapiens, UniProt P40763); assay: Binding of the aptide to STAT3 protein; details: read-out: affinity of binding to STAT3 protein
Chain of STAT3 protein (P40763 whole entry, species assumed, the tested form may be a part): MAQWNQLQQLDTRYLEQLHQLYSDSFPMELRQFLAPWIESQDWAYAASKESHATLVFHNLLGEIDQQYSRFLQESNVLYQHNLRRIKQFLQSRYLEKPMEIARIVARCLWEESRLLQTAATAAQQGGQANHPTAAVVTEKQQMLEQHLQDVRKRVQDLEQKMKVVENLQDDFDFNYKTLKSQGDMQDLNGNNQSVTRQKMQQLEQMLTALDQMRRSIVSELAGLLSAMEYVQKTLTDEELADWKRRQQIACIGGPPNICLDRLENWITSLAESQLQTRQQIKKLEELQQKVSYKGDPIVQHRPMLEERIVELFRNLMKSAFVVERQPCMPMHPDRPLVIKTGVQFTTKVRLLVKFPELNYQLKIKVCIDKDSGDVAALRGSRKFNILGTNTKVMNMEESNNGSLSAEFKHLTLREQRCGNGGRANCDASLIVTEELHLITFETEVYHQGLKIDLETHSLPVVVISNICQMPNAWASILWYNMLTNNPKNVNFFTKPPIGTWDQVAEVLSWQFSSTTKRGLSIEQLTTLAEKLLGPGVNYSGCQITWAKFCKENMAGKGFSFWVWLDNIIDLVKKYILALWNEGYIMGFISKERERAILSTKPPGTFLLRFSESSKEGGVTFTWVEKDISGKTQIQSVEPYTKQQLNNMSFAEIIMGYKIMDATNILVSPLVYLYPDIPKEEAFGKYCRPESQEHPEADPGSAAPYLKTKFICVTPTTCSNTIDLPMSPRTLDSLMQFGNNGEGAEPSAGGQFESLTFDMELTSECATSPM
Method: The aptide according to the present invention can be an aptide that specifically binds to STAT3 (signal transducer and activator of transcription 3) protein, and can specifically be composed of the amino acid sequence represented by SEQ. ID. NO: 2. the aptide for STAT3 protein is stable with a size of about 5 kDa, and can bind to STAT3 protein with a high affinity of 200 nM. The aptide for STAT3 protein can inhibit the activation of STAT3 protein by binding to SH2 domain of STAT3 protein and suppressing the phosphorylation. This mechanism may have less effect on an inaccurate target than a conventional JAK inhibitor that inhibits the activation of STAT3 protein using the JAK inhibitory mechanism.

RAW264.7 cells = assay: M2 polarization of IL-10 stimulated macrophages, CD163 FACS; assay type: cell-based, mouse; details: 20 μM, IL-10 stimulation 48 h
Method: To perform FACS analysis, mouse macrophage cell line (RAW264.7) was seeded in a 6-well plate at 2×10^5 cells/well density and incubated overnight for stabilization. In order to induce M2-type polarization, the samples were stimulated with IL-10 for 48 h in a 37° C.-maintained, 5% CO2 incubator. PBS, APTscr-9R(20 μM), and APTstat3-9R(20 μM) were simultaneously accordingly added for co-treatment. After the incubation, the specimens were collected and incubated for 30 min with 10% BSA in PBS to block non-specific binding of antibodies. After blocking, the samples were washed with three changes of 1×PBS for 5 min each. The collected specimens were resuspended in a 1 mL of separation buffer. The cells were collected in the filter tubes with strainer ([…]). After buffer removal, direct immunostaining was performed using phycoerythrin-cojugated CD163 monoclonal primary antibody (Invitrogen, Waltham, Mass., USA) at […] with 90 min incubation at 4° C. Upon the incubation, the cells were once again washed with three changes of 1×PBS for 5 min. […] The samples (20,000 cells) were analyzed using a LSR Fortessa™ high-performance multi-parameter flow cytometer (BD Bioscience, San Jose, Calif., USA) processed with FlowJo software (Tree Star Inc., San Carlos, Calif., USA).

[1] = test system: MLE12 lung epithelial cells; assay: Lung epithelial cell uptake (confocal, FACS); assay type: cell-based; details: 20 μM, 4 h
Method: In vitro cell uptake of FITC-APTstat3-9R and FITC-APTstat3-9R-DLNPs was determined by confocal microscopy imaging and FACS analysis. For confocal imaging, MLE12 cells were seeded on sterile cover glass in 12-well plate at 5×10^5 cells/well density followed by overnight incubation. The cells were treated with PBS, FITC-APTstat3-9R (20 μM), or FITC-APTstat3-9R-DLNPs (20 μM) for 4 h. The samples were washed twice with 1×PBS to discard free aptides. Subsequent sample preparation and analysis were described previously in in vitro macrophage polarization analysis section. For FACS experiment, MLE 12 cells were seeded in a 6-well plate at 3×10^5 cells/well density and incubated overnight for stabilization. The samples were treated with PBS, FITC-APTstat3-9R (20 μM), or FITC-APTstat3-9R-DLNPs (20 μM) for 4 h, washed, and collected using trypsin. The following steps were previously detailed in in vitro macrophage polarization analysis.

Compound: CCC(=O)O[C@]1(C(=O)CCl)[C@@H](C)C[C@H]2[C@@H]3CCC4=CC(=O)C=C[C@]4(C)[C@@]3(F)[C@@H](O)C[C@@]21C [CLQ, clobetasol propionate]
- size and weight of the spleen (psoriasis animal model): shrivelled

Compound: APTscr-9R: control aptide, SEQ ID NO:9; b173 calls it a lipid nanoparticle complex prepared as Example 3 with this aptide (HASDRNGSWTWENGKWTWKGLHEQSD; also: part of a lipid nanoparticle complex) [reference compound]
- vimentin marker level after stimulation (MLE12 cells): vastly increased

Compound: HGFQWPGSWTWENGKWTWKGAYQFLK [aptide for STAT3 protein]
- Kd (STAT3 protein): 200 nM

Compound: HGFQWPGSWTWENGKWTWKGAYQFLKGGGGSRRRRRRRRR (Aptide against STAT3 fused with nona-arginine) [APTstat3-9R]
- increase in CD163 level (M2 macrophage specific marker) (RAW264.7 cells): not upregulated
- vimentin marker level after stimulation (MLE12 cells): fairly decreased
- reduction of vimentin level compared to PBS treated group (MLE12 cells; TGF-β stimulation): approximately 29%
- uptake into MLE 12 lung epithelial cells (confocal images) [1]: uptaken
